Measured values reported in patent US10342795B2, “Substituted 4,5,6,7-tetrahydro-pyrazolo[1,5-a]pyrimidine derivatives and 2,3-dihydro-1H-imidazo[1,2-b]pyrazole derivatives as ROS1 inhibitors” (Janssen Pharmaceutica NV, priority 2014, dated 2019).

Columns and labels:
[1] = target: Ba/F3 cells containing Ros1 wild-type protein (Homo sapiens, UniProt P08922, cells depend on it, form not given); experiment: Ba/F3-Ros1 cell proliferation assay, wild-type Ros1, without IL-3; type: cell-based, murine; conditions: -log IC50 (M); wild-type Ros1, no IL-3, 24 h, Alamar Blue
Protocol: (§1) This assay was carried out with Ba/F3 cells containing three different versions of Ros1: the wild-type protein, protein with a mutation at the gatekeeper residue (L2026M), and protein with a mutation identified in a tumor from a patient that became resistant to crizotinib (Xalkori®) treatment (G2032R). Compounds were solubilized in 100% DMSO (dimethyl sulfoxide) and sprayed into polystyrene, tissue culture treated 384-well plates. A 50 μl volume of cell culture medium (phenol red free RPMI-1640, 10% FBS (fetal bovine serum), 2 mM L-Glutamine) containing 20000 Ba/F3-Ros1 cells was added to each well and the plates were placed in an incubator at 37° C. and 5% CO2. After 24 hours, 10 μl of Alamar Blue solution (0.5 mM K3Fe(CN)6, 0.5 mM K4Fe(CN)6, 0.15 mM Resazurin and 100 mM Phosphate Buffer) was added to the wells, incubated for 4 hours at 37° C. and 5% CO2 before RFU's (Relative Fluorescence Units) (ex. 540 nm., em. 590 nm.) were measured in a fluorescence plate reader.

[2] = target: Ba/F3 cells containing Ros1 L2026M (Homo sapiens, UniProt P08922, L2026M, cells depend on it, form not given); experiment: Ba/F3-Ros1 cell proliferation assay, L2026M gatekeeper mutant; type: cell-based, murine; conditions: -log IC50 (M), no IL-3
Protocol: as §1

[3] = target: Ba/F3 cells containing Ros1 G2032R (Homo sapiens, UniProt P08922, G2032R, cells depend on it, form not given); experiment: Ba/F3-Ros1 cell proliferation assay, G2032R mutant; type: cell-based, murine; conditions: -log IC50 (M), no IL-3
Protocol: as §1

Ba/F3-Ros1 G2032R tumors = experiment: Efficacy study in mice bearing Ba/F3-Ros1 G2032R tumors; type: in vivo, NMRI nude mice; conditions: oral gavage, 10 days, 20% cyclodextrin, change in final relative tumor volumes
Protocol: Approximately 2×10^6 Ba/F3 cells containing G2032R mutant Ros1 were inoculated into the inguinal region of NMRI nude mice. When the resulting tumors reached a size of 250 to 350 mm^3, mice were randomly assigned to the different treatment groups (8 to 12 mice per group). Compounds formulated in 20% cyclodextrin were administered to the mice by oral gavage at various doses for 10-days once (QD) or twice (BID) a day (see table below for administration frequency used in the study). Tumor sizes were determined by caliper measurement on day 1 prior to treatment and then twice weekly for the duration of the study using the commonly following formula: tumor volume (mm^3)=(a×b^2/2); where ‘a’ represents the length, and ‘b’ the width of the tumor. Treatment/control (T/C) ratios were calculated at the end of the study based on the change in final relative tumor volumes.

[4] = test system: HCC78 non-small cell lung cancer cells; experiment: HCC78 cell proliferation assay; type: cell-based; conditions: Homo sapiens, HCC78, 96 h; -log EC50 (M); 4 days, MTT; read-out: HCC-78 PROL pEC50 (converted)
Protocol: Approximately 1000 HCC78 non-small cell lung cancer cells in 180 μl of cell culture medium (RPMI-1640, 10% FBS, 2 mM L-Glutamine, 10 mM Hepes, 1 mM sodium pyruvate, 4.5 g/L glucose, 1.5 g/L sodium bicarbonate, 25 μg/ml Gentamycin) were seeded in each well of a 96-well polystyrene, tissue-culture treated plate and incubated at 37° C. and 5% CO2. After 24 hours, compounds were diluted in cell culture medium from which 20 μl was added to the wells containing cells and incubated for 4 days at 37° C. and 5% CO2. A 5 mg/ml solution of the tetrazolium dye MTT was prepared in PBS (phosphate-buffered saline) and 25 μl was added to each well. After 2 hours the medium was removed and replaced by 125 μL of 4/1 DMSO/glycine buffer (0.1M glycine, 0.1M NaCl, pH 10.5) before absorbance was determined at 538 nm.

[5] = test system: Ba/F3 cells containing Ros1 wild-type protein + IL-3; experiment: Ba/F3-Ros1 cell proliferation counter-screen, wild-type Ros1 in the presence of murine IL-3; type: cell-based; conditions: Mus musculus, BaF3, 24 h; -log IC50 (M); wild-type Ros1, 10 ng/ml murine IL-3 (counter-screen); read-out: BaF3-ROS1 + IL3 pIC50 (converted)
Protocol: as §1
As a counter-screen the same experiment was performed for the wild-type protein in the presence of 10 ng/ml murine IL-3.

Ros1 enzyme = target: T1, Ros1 enzyme (Homo sapiens, UniProt P08922); experiment: Ros1 enzymatic assay; type: biochemical; conditions: -log IC50 (M); 20 μM ATP, 120 min at room temperature; read-out: ROS1 pIC50 (converted)
T1 construct: 0.5 μg/ml Ros1 enzyme
Protocol: Compounds were spotted onto white 384-well Proxiplate plus plates (Perkin Elmer) to which 5 μl of enzyme mix (0.5 μg/ml Ros1 enzyme, 50 mM Tris-HCl pH7.5, 1 mM EGTA, 10 mM MgCl2, 0.01% Tween-20) and 5 μl of substrate mix (6 μg/ml IRS-Tide [American Peptide Company], 20 μM ATP, 13.33 μCi/ml ATP (adenosine 5′-triphosphate) P^33, 50 mM Tris-HCl pH7.5, 1 mM EGTA (ethylene glycol-bis(2-aminoethylether)-N,N,N′,N′-tetraacetic acid), 10 mM MgCl2, 0.01% Tween-20) were added. After incubation for 120 minutes at room temperature, 10 μl of stop reaction buffer (5 mM EDTA, 50 μM ATP, 0.1% BSA (bovine serum albumin), 0.1% Triton X-100, 50 mM Tris-HCl pH7.5, 1 mM EGTA, 10 mM MgCl2, 0.01% Tween-20) containing 2 mg/ml streptavidin coupled polystyrene imaging beads (Amersham Biosciences) was added and incubated for 15 minutes at room temperature. Plates were centrifuged for 3 minutes at 1500 rpm and signals detected in a LEADseeker imaging system (GE).

Ros pY2274 = Ros pY2274 (Homo sapiens, UniProt P08922); experiment: pROS1 immunofluorescence assay in HCC78 cells; type: cell-based; conditions: -log IC50 (M); 4 hours, Ros1 pY2274 normalized to total Ros1
Protocol: Approximately 20000 HCC78 non-small cell lung cancer cells in 180 μl of cell culture medium (RPMI-1640, 10% FBS, 2 mM L-Glutamine, 10 mM Hepes, 1 mM sodium pyruvate, 4.5 g/L glucose, 1.5 g/L sodium bicarbonate, 25 μg/ml Gentamycin) were seeded in each well of a 96-well polystyrene, poly-D-lysine coated plate and incubated at 37° C. and 5% CO2. After 24 hours, compounds were diluted in cell culture medium from which 20 μl was added to the wells containing cells and incubated for 4 hours at 37° C. and 5% CO2. The medium was removed and the cells were fixed by adding 100 μl of 5% formaldehyde in TBS (tris-buffered saline) (50 mM Tris.HCl, pH 7.4, 150 mM NaCl) and incubating for 15 minutes at room temperature. The formaldehyde was removed and replaced with methanol for 10 minutes at room temperature, after which the cells were washed 3 times with TBS containing 1% Triton X-100 and incubated in Odyssee (Li-Cor) blocking buffer for 1 hour at room temperature. The cells were then incubated with the primary rabbit antibody directed against Ros pY2274 (cst-3078) diluted 1/200 in blocking buffer for 24 hours at room temperature. The cells were washed three times with TBS containing 0.1% Triton X-100 and incubated with a secondary anti-rabbit antibody conjugated to the fluorescent dye Alexafluor 680 in blocking buffer for 1 hour at room temperature. The cells were washed three times with TBS containing 0.1% Triton X-100 and left to dry before measuring RFUs (Relative Fluorescence Units) at 700 nm using a fluorescence imager. The same experiment was performed using total Ros1 antibody (sc-6347) diluted 1/1000 instead of Ros1 pY2274 antibody and an anti-goat antibody conjugated to IRDye800cw as a secondary antibody. RFUs were measured at […]. The signals from total Ros1 detection were used to normalize the Ros1pY2274 values.

Sequence of Ba/F3 cells containing Ros1 wild-type protein (P08922 whole entry, stated change not applied): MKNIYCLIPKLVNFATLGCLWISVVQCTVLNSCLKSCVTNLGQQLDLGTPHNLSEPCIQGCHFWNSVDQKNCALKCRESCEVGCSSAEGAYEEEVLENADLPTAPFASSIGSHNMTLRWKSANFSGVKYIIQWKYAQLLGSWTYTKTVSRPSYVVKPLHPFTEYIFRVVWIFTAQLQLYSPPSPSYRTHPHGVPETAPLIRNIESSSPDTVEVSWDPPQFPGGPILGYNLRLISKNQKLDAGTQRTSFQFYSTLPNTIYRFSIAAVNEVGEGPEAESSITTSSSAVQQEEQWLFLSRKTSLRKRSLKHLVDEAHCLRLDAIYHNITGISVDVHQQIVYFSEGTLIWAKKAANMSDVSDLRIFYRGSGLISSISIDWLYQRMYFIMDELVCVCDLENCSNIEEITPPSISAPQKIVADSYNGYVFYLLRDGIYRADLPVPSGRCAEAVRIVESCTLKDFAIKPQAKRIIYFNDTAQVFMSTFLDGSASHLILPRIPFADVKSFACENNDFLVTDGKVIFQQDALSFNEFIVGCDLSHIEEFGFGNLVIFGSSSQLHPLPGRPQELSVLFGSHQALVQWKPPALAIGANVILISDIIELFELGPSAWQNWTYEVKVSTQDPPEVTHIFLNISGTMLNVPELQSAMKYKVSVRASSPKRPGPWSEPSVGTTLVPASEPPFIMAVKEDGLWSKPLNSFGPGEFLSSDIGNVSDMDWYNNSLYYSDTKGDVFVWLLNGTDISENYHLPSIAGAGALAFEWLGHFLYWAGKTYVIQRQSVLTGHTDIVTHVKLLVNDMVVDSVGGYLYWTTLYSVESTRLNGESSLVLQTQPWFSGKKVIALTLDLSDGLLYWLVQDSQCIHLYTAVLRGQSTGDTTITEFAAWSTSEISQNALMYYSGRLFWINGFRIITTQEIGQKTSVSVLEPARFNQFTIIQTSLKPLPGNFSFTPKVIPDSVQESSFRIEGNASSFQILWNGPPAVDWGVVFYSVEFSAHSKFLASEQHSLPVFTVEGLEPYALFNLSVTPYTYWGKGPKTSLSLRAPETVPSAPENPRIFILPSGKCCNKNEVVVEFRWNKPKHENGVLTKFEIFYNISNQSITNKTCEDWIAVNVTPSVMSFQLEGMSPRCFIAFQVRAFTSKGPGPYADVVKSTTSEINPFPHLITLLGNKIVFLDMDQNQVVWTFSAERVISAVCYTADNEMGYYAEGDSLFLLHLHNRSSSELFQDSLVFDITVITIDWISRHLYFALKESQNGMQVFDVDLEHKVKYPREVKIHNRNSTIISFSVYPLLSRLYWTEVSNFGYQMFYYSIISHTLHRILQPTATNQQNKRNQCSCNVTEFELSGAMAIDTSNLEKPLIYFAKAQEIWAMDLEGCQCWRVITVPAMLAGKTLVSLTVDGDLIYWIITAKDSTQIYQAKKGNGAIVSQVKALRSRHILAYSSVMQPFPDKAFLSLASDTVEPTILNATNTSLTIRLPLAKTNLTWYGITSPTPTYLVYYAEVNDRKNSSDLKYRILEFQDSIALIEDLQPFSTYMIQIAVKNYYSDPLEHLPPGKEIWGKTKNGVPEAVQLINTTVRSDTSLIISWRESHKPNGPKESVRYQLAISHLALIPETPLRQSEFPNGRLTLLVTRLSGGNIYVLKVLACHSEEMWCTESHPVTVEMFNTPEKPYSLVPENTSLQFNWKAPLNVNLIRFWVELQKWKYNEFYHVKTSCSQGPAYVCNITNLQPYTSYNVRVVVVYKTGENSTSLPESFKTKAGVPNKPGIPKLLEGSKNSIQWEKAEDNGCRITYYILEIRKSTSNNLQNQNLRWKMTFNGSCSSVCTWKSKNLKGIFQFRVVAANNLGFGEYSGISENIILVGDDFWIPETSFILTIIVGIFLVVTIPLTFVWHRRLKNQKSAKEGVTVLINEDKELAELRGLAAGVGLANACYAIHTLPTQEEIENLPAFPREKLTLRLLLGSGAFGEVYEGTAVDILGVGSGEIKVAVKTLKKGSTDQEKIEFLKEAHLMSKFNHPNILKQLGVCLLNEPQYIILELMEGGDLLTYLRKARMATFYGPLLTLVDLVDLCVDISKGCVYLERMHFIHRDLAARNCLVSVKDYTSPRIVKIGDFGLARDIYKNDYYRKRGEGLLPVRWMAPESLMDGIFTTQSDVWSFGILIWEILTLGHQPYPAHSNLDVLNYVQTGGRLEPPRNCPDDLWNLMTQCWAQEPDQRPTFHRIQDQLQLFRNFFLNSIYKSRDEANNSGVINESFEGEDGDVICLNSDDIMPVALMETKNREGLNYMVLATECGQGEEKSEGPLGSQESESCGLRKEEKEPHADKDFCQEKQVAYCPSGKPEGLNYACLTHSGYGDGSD
Sequence of Ba/F3 cells containing Ros1 L2026M (P08922 whole entry L2026M, form open): as the sequence (P08922 whole entry, stated change not applied) above, with L2026M counted along it
Sequence of Ba/F3 cells containing Ros1 G2032R (P08922 whole entry G2032R, form open): as the sequence (P08922 whole entry, stated change not applied) above, with G2032R counted along it
T1 sequence (P08922 28-2347): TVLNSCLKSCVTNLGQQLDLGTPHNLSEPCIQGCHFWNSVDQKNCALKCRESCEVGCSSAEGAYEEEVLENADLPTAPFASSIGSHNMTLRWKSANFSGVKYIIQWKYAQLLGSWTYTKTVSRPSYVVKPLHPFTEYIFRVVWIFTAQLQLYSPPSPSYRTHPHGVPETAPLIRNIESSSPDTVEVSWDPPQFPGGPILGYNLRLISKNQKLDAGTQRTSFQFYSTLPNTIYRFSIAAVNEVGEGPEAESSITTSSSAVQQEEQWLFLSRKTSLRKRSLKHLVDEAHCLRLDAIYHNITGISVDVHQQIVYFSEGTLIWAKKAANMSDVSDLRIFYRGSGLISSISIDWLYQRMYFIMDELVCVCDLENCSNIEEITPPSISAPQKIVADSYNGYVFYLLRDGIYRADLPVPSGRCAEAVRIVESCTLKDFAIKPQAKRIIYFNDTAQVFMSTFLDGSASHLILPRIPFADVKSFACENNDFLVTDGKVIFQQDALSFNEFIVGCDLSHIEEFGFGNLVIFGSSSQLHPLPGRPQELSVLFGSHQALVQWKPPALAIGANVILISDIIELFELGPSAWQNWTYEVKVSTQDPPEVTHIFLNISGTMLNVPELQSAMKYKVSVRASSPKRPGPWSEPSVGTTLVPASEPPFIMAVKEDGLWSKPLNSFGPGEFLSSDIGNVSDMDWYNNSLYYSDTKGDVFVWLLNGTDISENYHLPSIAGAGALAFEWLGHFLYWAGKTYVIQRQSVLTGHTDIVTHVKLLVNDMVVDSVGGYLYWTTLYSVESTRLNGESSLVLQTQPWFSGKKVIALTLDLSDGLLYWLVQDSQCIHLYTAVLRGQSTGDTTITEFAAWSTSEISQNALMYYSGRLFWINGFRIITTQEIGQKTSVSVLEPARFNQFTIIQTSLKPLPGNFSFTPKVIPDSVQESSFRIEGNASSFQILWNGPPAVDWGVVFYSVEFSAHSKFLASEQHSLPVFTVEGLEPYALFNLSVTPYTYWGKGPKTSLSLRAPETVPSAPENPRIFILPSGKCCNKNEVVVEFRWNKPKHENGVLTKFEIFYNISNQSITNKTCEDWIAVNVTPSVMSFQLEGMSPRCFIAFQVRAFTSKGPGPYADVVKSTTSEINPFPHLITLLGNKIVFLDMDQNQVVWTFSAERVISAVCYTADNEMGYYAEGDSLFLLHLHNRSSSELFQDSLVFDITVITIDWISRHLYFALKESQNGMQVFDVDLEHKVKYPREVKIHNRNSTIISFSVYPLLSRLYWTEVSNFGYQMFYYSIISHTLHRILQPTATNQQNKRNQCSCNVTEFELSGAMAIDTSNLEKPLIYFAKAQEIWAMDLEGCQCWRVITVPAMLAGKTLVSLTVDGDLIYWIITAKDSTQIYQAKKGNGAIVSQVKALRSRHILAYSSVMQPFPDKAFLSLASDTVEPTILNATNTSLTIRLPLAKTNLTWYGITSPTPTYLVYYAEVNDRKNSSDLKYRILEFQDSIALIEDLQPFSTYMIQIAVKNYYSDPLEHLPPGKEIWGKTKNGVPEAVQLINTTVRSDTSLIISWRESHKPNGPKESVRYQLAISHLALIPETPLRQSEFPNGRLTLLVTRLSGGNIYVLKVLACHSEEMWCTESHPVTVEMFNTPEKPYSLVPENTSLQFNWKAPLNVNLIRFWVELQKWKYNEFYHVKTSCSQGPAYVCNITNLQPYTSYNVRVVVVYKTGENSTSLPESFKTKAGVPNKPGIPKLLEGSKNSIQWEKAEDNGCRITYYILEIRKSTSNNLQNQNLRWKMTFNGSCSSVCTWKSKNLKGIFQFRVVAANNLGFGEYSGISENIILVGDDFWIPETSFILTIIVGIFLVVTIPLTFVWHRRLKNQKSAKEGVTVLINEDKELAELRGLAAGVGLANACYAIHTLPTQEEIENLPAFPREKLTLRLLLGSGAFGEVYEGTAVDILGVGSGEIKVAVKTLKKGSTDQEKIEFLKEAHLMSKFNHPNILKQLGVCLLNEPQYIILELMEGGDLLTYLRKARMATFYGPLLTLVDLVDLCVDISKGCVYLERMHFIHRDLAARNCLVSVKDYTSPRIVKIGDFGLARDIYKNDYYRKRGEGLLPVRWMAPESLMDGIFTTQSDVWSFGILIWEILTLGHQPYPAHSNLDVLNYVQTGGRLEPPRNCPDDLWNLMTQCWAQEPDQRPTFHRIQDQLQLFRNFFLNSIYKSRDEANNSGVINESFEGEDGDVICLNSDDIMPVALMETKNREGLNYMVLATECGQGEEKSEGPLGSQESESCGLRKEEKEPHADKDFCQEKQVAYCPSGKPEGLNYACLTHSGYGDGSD

Structure (SMILES)	BaF3-ROS1 − IL3 pIC50 [1]	Ba/F3 Ros1 L2026M (-IL-3) pIC50 [2]	melting point [°C]	Ba/3 Ros1 G2032R (-IL-3) pIC50 [3]	EC50 [4] [M]	IC50 (Ros1 enzyme) [M]	HCC78 pRos pIC50 (Ros pY2274)	T/C (%) (Ba/F3-Ros1 G2032R tumors; 12.5 mg/kg BID)	T/C (%) (Ba/F3-Ros1 G2032R tumors; 25 mg/kg BID)	T/C (%) (Ba/F3-Ros1 G2032R tumors; 50 mg/kg BID)	CC50 [5] [M]
CC(C)c1ccc(COc2ccc(-c3c(-c4ccncc4)nn4c3NCC4)cc2)cc1 [Co. 1]	7.0	~6.7	156	6.4	7.94e-07	1.26e-07	–	64	16	−18	5.01e-06
c1cc(-c2nn3c(c2-c2ccc(OCc4ccc(C5CC5)cc4)cc2)NCC3)ccn1 [Co. 7]	6.8	7.5	159	6.2	6.31e-07	2.51e-07	–	–	–	–	> 1e-05
CC(C)c1ccc(COc2ccc(-c3c(-c4ccncc4)nn4c3N(CCO)CC4)cc2)cc1 [Co. 10]	7.1	6.8	151	6.4	2.51e-06	1.26e-07	–	–	–	–	> 1e-05

More lines, main results first:

BaF3-ROS1 − IL3 pIC50 [1]	Ba/F3 Ros1 L2026M (-IL-3) pIC50 [2]	melting point [°C]	Ba/3 Ros1 G2032R (-IL-3) pIC50 [3]	EC50 [4] [M]	IC50 (Ros1 enzyme) [M]	HCC78 pRos pIC50 (Ros pY2274)	Structure (SMILES)	T/C (%) (Ba/F3-Ros1 G2032R tumors; 12.5 mg/kg BID)	T/C (%) (Ba/F3-Ros1 G2032R tumors; 25 mg/kg BID)	T/C (%) (Ba/F3-Ros1 G2032R tumors; 50 mg/kg BID)	CC50 [5] [M]
6.8	6.7	–	–	5.01e-07	1.58e-07	6.8	CC(C)c1ccc(COc2ccc(-c3c(-c4ccncc4)nn4c3NC(=O)C4)cc2)cc1 [Co. 13]	–	–	–	> 1e-05
7.0	7.3	290	–	1e-07	1.26e-07	~5.4	CC(C)c1ccc(COc2ccc(-c3c(-c4ccncc4)nn4c3NC(=O)CC4)cc2)cc1 [Co. 16]	–	–	–	> 1e-05
7.1	6.9	205	–	1e-07	3.98e-08	7.6	CC(C)c1ccc(COc2ccc(-c3c(-c4ccncc4)nn4c3NCCC4)cc2)cc1 [Co. 17]	–	–	–	> 1e-05
